{
  "source": "patent EP4108230A1",
  "about": "“NEW DRY POWDER COMPOSITION OF TIOTROPIUM FOR INHALATION” (Laboratoires SMB, priority 2021, dated 2022)",
  "origin": "cited, not measured here",
  "data": [
    {"smiles": "C[N+]1(C)[C@@H]2C[C@@H](OC(=O)C(O)(c3cccs3)c3cccs3)C[C@H]1[C@@H]1O[C@@H]12", "note": "[Tiotropium bromide, (1α, 2β, 4 β, 5α, 7β)-7-[(Hydroxydi-2-thienylacetyl)oxy]-9,9-dimethyl-3-oxa-9-azoniatricyclo[3.3.1.02,4] nonane bromide monohydrate]", "values": [
      {"measurement": "solubility in methanol", "setting": "methanol", "value": "soluble"},
      {"measurement": "solubility in water", "setting": "water", "value": "sparingly soluble"}
    ]}
  ]
}
